Where two headings read alike, the source gives them in different places.
Key:
Experiment in all cases: biochemical
Format in all cases: biochemical
[1] = molecular target: panel of 391 kinases (Homo sapiens, UniProt P08922); details: ROS/ROS1, MK-28 1 µM, ATP 1 µM
[2] = molecular target: panel of 391 kinases (Homo sapiens, UniProt P16591); details: FER, MK-28 1 µM, ATP 1 µM
[3] = molecular target: panel of 391 kinases (Homo sapiens, UniProt P19525); details: kinase EIF2AK2, compound at 1 µM, single dose in duplicates, 1 µM ATP
[4] = molecular target: panel of 391 kinases (Homo sapiens, UniProt P36894); details: ALK3/BMPR1A, MK-28 1 µM, ATP 1 µM
[5] = molecular target: panel of 391 kinases (Homo sapiens, UniProt P41743); details: PKCiota, MK-28 1 µM, ATP 1 µM
[6] = molecular target: panel of 391 kinases (Homo sapiens, UniProt P45984); details: JNK2, MK-28 1 µM, ATP 1 µM
[7] = molecular target: panel of 391 kinases (Homo sapiens, UniProt P48729); details: CK1a1, MK-28 1 µM, ATP 1 µM
[8] = molecular target: panel of 391 kinases (Homo sapiens, UniProt Q13163); details: MEK5, MK-28 1 µM, ATP 1 µM
[9] = molecular target: panel of 391 kinases (Homo sapiens, UniProt Q13188); details: MST2/STK3, MK-28 1 µM, ATP 1 µM
[10] = molecular target: panel of 391 kinases (Homo sapiens, UniProt Q13627); details: DYRK1/DYRK1A, MK-28 1 µM, ATP 1 µM
[11] = molecular target: panel of 391 kinases (Homo sapiens, UniProt Q14012); details: CAMK1a, MK-28 1 µM, ATP 1 µM
[12] = molecular target: panel of 391 kinases (Homo sapiens, UniProt Q7KZI7); details: MARK2/PAR-1Ba, MK-28 1 µM, ATP 1 µM
[13] = molecular target: panel of 391 kinases (Homo sapiens, UniProt Q86SG6); details: NEK8, MK-28 1 µM, ATP 1 µM
[14] = molecular target: panel of 391 kinases (Homo sapiens, UniProt Q8IVH8); details: GLK/MAP4K3, MK-28 1 µM, ATP 1 µM
[15] = molecular target: panel of 391 kinases (Homo sapiens, UniProt Q8IVT5); details: KSR1, MK-28 1 µM, ATP 1 µM
[16] = molecular target: T1, panel of 391 kinases (Homo sapiens, UniProt Q9NZJ5)
T1 sequence (Q9NZJ5 30-1116): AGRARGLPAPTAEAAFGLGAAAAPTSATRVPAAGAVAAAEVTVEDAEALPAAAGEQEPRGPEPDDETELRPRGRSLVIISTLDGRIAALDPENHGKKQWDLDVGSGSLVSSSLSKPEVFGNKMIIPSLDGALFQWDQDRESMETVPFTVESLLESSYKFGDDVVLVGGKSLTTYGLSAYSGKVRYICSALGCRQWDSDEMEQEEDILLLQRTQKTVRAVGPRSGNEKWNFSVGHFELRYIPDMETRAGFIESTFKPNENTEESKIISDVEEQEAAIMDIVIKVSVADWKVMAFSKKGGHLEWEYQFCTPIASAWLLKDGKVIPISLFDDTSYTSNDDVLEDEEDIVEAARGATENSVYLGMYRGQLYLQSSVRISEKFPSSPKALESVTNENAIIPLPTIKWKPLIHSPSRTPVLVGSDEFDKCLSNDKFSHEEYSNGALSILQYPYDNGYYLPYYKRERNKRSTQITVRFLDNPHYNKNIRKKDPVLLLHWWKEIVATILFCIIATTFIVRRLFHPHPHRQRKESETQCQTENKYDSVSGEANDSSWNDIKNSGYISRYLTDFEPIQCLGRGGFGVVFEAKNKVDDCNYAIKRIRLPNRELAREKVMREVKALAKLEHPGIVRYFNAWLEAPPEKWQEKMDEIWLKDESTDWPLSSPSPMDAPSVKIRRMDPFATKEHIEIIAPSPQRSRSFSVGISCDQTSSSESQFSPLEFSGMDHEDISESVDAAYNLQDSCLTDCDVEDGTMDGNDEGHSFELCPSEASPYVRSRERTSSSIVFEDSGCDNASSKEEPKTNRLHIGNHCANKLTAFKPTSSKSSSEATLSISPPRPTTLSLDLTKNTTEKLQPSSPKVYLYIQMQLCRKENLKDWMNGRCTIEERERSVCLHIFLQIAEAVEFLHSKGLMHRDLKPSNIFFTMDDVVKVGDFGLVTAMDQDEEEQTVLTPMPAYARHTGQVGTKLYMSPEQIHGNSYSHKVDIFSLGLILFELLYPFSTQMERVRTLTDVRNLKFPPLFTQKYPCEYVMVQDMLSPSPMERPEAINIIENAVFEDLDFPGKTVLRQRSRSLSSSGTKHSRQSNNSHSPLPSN

[17] = molecular target: panel of 391 kinases (Homo sapiens, UniProt Q9P286); details: PAK5, MK-28 1 µM, ATP 1 µM
[18] = read-out: % Enzyme Activity (relative to DMSO controls)

For CN(/N=C\c1ccc(O)c(O)c1)c1nc(-c2ccccc2)cc(-c2ccccc2)n1 [MK-28], the “% Enzyme Activity (relative to DMSO controls)” value [1] was 99.57%, the remaining activity at 1 µM [1, 18] was 100% and the “% Enzyme Activity (relative to DMSO controls)” value [2] was 101.21%. For the same molecule, the remaining activity at 1 µM [2, 18] was 102%, the “% Enzyme Activity (relative to DMSO controls)” value [3] was 97.81% and the remaining activity at 1 µM [3, 18] was 99%. For the same molecule, the “% Enzyme Activity (relative to DMSO controls)” value [4] was 98.85%, the remaining activity at 1 µM [4, 18] was 106% and the “% Enzyme Activity (relative to DMSO controls)” value [5] was 105.00%. The remaining activity at 1 µM [5, 18] was 105%, the “% Enzyme Activity (relative to DMSO controls)” value [6] was 90.48% and the remaining activity at 1 µM [6, 18] was 90.8%. The “% Enzyme Activity (relative to DMSO controls)” value [7] was 98.77%, the remaining activity at 1 µM [7, 18] was 99.5% and the “% Enzyme Activity (relative to DMSO controls)” value [8] was 100.81%. For the same molecule, the remaining activity at 1 µM [8, 18] was 105%, the “% Enzyme Activity (relative to DMSO controls)” value [9] was 100.15% and the remaining activity at 1 µM [9, 18] was 101%. The “% Enzyme Activity (relative to DMSO controls)” value [10] was 102.59%, the remaining activity at 1 µM [10, 18] was 103% and the “% Enzyme Activity (relative to DMSO controls)” value [11] was 77.40%. For the same molecule, the remaining activity at 1 µM [11, 18] was 77.7%, the “% Enzyme Activity (relative to DMSO controls)” value [12] was 98.73% and the remaining activity at 1 µM [12, 18] was 106%. The “% Enzyme Activity (relative to DMSO controls)” value [13] was 101.46%, the remaining activity at 1 µM [13, 18] was 101% and the “% Enzyme Activity (relative to DMSO controls)” value [14] was 94.50%. The remaining activity at 1 µM [14, 18] was 95.9%, the “% Enzyme Activity (relative to DMSO controls)” value [15] was 97.81% and the remaining activity at 1 µM [15, 18] was 99.7%. For the same molecule, the remaining activity at 1 µM ([16]; 1 μM, duplicate, 391-kinase panel, read-out: PERK (EIF2AK3) activity, % of the control) was 181%, the “% Enzyme Activity (relative to DMSO controls)” value ([16]; kinase EIF2AK3, compound at 1 µM, single dose in duplicates, 1 µM ATP) was 175.07% and the remaining activity at 1 µM ([16]; kinase EIF2AK3, compound at 1 µM, single dose in duplicates, 1 µM ATP, read-out: % Enzyme Activity (relative to DMSO controls)) was 188%. For the same molecule, the “% Enzyme Activity (relative to DMSO controls)” value [17] was 72.57% and the remaining activity at 1 µM [17, 18] was 77.2%.
